From ChEMBL document CHEMBL1201862, “PubChem BioAssay data set” (2004)
Active and inactive are the calls of the source.

Legend:
SUMO-activating enzyme = SUMO-activating enzyme (Homo sapiens, UniProt Q9UBT2); test: SUMOylation inhibitor hit validation, confirmation, SUMOylation inhibitor project, biochemical, AlphaScreen (AID 2018); type: functional
Mucolipin-3 = target: T1, Mucolipin-3 (Homo sapiens, UniProt Q8TDD5); test: Dose response cell-based high-throughput screening assay for agonists of the transient receptor potential channel ML3 (TRPML3). [Related pubchem assays: 1526, 1424, 1448 ]; type: functional
T1 sequence (Q8TDD5 whole entry): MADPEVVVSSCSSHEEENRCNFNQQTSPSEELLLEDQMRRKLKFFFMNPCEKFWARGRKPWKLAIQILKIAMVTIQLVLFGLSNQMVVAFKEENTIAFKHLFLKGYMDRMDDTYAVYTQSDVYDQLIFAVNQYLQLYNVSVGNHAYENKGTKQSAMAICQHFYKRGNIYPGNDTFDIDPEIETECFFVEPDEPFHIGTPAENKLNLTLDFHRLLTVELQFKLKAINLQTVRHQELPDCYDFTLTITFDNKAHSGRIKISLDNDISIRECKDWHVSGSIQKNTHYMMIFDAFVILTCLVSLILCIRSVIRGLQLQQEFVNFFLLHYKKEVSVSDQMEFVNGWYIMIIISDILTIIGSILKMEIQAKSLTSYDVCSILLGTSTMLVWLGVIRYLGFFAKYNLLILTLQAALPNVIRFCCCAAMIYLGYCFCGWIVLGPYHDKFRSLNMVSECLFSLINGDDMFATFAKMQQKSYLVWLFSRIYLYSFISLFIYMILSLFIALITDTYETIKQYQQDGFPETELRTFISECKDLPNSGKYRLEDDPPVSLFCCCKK

[1] = target: T2, Calpain-2 catalytic subunit (Sus scrofa, UniProt P43367); test: pig calpain II inhibitor potency, dose response, biochemical, fluorogenic peptide substrate (AID 1420); type: functional
T2 sequence (P43367 whole entry): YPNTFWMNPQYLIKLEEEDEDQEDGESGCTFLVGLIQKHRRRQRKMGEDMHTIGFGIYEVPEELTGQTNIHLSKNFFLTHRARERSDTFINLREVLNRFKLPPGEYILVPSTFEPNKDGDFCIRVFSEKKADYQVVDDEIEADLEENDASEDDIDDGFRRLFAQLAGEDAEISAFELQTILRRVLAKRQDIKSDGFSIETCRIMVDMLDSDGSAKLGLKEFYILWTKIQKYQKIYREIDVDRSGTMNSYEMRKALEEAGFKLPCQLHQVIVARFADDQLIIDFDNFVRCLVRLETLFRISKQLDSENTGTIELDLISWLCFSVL

Ion channel NompC = Ion channel NompC (Danio rerio, UniProt Q7T1G6); test: Fluorescence counterscreen assay for TRPML3 agonists: dose response cell-based high-throughput screening assay to identify agonists of the transient receptor potential channel N1 (TRPN1). [Related pubchem assays: 1526, 1424, 1448 ]; type: functional
Chain of Ion channel NompC (Q7T1G6 whole entry): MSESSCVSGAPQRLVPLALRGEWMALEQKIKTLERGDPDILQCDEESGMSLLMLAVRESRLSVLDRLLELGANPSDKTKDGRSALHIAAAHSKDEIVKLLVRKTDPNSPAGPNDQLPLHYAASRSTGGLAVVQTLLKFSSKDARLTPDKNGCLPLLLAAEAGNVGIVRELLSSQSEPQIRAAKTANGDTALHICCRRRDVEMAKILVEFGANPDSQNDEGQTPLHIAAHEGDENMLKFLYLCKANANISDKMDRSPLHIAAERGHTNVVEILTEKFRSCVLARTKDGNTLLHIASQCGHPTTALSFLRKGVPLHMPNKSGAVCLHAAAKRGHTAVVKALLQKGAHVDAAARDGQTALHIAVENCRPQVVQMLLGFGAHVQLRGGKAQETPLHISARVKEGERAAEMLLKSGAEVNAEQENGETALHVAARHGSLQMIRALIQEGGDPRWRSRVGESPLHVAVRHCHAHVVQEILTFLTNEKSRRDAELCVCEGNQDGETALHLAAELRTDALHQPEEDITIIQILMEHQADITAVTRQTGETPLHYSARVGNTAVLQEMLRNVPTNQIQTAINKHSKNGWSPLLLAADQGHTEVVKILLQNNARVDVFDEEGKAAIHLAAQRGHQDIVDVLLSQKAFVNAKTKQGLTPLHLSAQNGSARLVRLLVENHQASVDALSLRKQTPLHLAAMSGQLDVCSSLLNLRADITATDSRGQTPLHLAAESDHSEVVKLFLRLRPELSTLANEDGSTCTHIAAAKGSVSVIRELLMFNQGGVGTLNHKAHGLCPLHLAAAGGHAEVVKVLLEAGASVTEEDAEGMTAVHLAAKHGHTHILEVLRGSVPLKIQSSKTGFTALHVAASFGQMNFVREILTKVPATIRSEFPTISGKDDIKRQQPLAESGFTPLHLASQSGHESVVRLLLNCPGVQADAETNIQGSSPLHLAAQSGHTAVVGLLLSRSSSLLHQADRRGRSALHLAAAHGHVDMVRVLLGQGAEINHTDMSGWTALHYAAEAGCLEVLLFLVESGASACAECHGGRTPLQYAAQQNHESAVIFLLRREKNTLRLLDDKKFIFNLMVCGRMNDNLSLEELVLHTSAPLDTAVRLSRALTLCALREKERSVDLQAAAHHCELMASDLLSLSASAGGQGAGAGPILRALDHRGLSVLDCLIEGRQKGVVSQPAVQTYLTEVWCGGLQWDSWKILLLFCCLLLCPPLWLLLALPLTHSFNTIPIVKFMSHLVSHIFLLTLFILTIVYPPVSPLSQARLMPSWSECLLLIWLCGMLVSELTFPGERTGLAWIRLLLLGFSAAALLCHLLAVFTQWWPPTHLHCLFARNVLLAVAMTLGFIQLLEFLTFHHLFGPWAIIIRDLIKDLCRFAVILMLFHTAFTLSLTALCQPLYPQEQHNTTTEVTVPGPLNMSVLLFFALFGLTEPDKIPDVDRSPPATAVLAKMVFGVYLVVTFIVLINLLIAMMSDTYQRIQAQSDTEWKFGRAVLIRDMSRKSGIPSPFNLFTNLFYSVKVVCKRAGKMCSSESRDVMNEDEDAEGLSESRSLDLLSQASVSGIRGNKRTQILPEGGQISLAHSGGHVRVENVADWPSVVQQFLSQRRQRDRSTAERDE

[2] = target: DNA dC->dU-editing enzyme APOBEC-3A (Homo sapiens, UniProt P31941); test: Dose Response confirmation of small molecule APOBEC3A DNA Deaminase Inhibitors via a fluorescence-based single-stranded DNA deaminase assay. [Related pubchem assays (depositor defined):AID493011, AID493024]; type: functional
Chain of DNA dC->dU-editing enzyme APOBEC-3A (P31941 whole entry): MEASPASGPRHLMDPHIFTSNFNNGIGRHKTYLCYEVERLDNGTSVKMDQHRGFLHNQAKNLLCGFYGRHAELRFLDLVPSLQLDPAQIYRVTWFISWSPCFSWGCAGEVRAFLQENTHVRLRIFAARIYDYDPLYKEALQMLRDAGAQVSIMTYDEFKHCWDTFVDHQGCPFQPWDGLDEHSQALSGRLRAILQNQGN

[3] = target: DNA dC->dU-editing enzyme APOBEC-3G (Homo sapiens, UniProt Q9HC16); type: functional;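 note: Dose-response counterscreen measuring inhibition of APOBEC3G DNA deaminase activity, run while confirming APOBEC3A inhibitors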
Chain of DNA dC->dU-editing enzyme APOBEC-3G (Q9HC16 whole entry): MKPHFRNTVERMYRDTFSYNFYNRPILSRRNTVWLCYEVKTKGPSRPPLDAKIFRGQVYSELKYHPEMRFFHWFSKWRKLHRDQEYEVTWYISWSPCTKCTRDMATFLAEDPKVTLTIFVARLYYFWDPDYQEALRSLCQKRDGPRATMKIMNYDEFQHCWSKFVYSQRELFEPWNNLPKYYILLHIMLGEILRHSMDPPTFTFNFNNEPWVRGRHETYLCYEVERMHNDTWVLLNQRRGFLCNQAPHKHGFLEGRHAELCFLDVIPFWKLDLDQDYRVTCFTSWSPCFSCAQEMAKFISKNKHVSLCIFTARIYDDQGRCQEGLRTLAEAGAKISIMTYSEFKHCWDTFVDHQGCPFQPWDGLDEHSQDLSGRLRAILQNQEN

cells [4] = test: cells
[5] = target: G-protein coupled receptor 55 (Homo sapiens, UniProt Q9Y2T6); test: GPR55 antagonists blocking LPI-driven arrestin recruitment, primary screen, imaging, U2OS, beta-arrestin-GFP, LPI agonist (AID 2013); type: functional;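 note: antagonist potency measured as reduced agonist-driven arrestin aggregation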
Chain of G-protein coupled receptor 55 (Q9Y2T6 whole entry): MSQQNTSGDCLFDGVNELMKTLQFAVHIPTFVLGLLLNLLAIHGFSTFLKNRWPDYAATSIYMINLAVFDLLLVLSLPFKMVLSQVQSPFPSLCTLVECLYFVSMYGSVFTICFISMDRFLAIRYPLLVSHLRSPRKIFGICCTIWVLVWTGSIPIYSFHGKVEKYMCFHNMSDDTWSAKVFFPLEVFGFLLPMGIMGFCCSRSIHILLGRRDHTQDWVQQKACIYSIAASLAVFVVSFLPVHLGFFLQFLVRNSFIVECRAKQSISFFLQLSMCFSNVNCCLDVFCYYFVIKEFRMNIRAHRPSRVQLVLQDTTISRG

[6] = target: Voltage-dependent T-type calcium channel subunit alpha-1H (Homo sapiens, UniProt O95180); type: functional;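 note: channel activity triggered by adding a high calcium stimulation buffer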
Chain of Voltage-dependent T-type calcium channel subunit alpha-1H (O95180 whole entry): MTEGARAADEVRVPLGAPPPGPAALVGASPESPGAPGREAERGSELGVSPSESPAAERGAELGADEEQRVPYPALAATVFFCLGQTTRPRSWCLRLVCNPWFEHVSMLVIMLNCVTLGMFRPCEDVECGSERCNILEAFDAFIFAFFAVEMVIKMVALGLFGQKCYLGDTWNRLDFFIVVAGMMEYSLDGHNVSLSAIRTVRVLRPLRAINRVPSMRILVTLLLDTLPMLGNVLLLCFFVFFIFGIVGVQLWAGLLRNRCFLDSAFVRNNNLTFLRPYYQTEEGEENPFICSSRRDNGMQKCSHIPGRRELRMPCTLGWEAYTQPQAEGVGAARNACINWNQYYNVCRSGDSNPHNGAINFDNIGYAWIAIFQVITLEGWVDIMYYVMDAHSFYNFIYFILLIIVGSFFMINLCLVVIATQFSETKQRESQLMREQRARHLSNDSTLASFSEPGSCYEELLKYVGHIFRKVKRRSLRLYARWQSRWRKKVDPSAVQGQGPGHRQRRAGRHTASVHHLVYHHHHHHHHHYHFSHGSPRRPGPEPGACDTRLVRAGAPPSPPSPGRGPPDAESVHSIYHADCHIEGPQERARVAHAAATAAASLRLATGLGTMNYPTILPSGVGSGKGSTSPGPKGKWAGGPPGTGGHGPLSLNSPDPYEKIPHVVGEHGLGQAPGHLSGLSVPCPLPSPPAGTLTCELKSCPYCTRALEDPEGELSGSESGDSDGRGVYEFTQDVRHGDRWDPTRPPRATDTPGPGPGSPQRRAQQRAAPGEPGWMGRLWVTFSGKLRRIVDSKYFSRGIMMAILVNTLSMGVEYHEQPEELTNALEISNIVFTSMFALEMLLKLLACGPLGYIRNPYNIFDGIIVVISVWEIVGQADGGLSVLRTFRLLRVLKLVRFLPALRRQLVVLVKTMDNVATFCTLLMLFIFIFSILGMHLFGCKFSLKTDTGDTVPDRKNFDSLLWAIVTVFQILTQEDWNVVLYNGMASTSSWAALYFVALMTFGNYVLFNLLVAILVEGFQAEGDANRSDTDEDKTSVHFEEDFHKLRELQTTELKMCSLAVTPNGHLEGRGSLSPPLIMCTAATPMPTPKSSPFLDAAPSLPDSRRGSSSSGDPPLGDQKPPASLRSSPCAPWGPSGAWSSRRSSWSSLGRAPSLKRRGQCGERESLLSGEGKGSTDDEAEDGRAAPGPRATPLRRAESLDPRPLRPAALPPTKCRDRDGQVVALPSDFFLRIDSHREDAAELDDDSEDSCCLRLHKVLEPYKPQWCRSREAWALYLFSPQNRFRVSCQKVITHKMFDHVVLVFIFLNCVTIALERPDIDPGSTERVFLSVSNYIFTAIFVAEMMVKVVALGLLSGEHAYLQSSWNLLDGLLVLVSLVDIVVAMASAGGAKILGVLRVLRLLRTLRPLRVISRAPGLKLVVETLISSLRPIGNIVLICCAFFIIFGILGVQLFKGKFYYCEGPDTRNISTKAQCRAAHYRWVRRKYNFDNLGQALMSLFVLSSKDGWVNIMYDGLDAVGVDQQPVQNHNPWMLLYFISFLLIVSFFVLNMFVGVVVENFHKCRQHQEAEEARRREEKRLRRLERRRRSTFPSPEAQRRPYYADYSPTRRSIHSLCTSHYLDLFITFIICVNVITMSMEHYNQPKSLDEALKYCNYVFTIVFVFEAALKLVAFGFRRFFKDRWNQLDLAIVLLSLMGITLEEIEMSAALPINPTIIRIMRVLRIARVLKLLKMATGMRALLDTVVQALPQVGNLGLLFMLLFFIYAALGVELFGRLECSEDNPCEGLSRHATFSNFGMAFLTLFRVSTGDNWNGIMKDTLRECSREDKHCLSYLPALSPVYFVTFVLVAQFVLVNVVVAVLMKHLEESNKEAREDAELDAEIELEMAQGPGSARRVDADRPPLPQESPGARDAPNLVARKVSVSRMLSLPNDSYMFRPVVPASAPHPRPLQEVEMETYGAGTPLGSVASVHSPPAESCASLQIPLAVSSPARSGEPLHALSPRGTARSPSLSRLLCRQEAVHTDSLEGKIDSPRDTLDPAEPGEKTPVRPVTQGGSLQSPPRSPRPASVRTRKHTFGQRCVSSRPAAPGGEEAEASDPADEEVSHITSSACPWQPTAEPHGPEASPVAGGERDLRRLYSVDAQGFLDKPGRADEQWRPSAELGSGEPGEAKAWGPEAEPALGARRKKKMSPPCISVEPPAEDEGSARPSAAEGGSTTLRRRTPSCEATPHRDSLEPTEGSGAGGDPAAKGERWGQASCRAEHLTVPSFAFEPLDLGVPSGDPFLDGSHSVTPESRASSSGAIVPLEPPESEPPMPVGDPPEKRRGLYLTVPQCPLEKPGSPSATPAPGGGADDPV

[7] = target: Dual specificity tyrosine-phosphorylation-regulated kinase 1A (Rattus norvegicus, UniProt Q63470); type: biochemical, Homo sapiens
[8] = THP-1 cell cytotoxicity, dose response, cytotoxicity control for non-replicating M. tuberculosis project (AID 489025); type: functional
[9] = HepG2 cell cytotoxicity, dose response, cytotoxicity control for non-replicating M. tuberculosis project (AID 489018); type: functional; conditions: Mycobacterium tuberculosis
[10] = Vero E6 cell cytotoxicity, dose response, cytotoxicity control for non-replicating M. tuberculosis project, secondary assay (AID 492998); type: functional, VeroE6; conditions: Vero C1008
cells [11] = type: functional
H9c2 = test: cells; type: functional, cell-based; conditions: Rattus norvegicus, H9c2, Myocardium;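 note: confirmatory concentration-response retest of ultra-high-throughput screening hits for modulation of myocardial damage; cell death induced by hydrogen peroxide oxidative stress; compound pretreatment for 60 min then peroxide exposure for 2 h; potency is for protecting the cells against peroxide damage rather than for killing them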
[12] = growth suppression of PTEN-null colon cells, dose response, cell-based, HCT116 PTEN knockout (AID 1047); type: functional;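 note: HCT116 colon tumor cells with PTEN knocked out; cells exposed to compound for 60 hours before readout; potency for loss of cell viability measured by luminescence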
[13] = growth suppression of beta-catenin-knockout colon cells, dose response, cell-based, HCT116, human colon tumor (AID 1045); type: functional;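 note: HCT116 colon tumor cells with beta catenin knocked out; cells exposed to compound for 60 hours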
[14] = HEp-2 cell cytotoxicity, dose response, cytotoxicity control for RSV inhibitor project, HTS (AID 2410); type: functional; conditions: human respiratory syncytial virus
[15] = Luminescence Cell-Based Dose Confirmation HTS to Identify Activators of 5'UTR Stem-Loop Driven Alpha-Synuclein mRNA Translation in H4 Neuroglioblastoma Cells. [Related pubchem assays: 1829 (Project Summary), 1814 (Primary HTS)]; type: functional
[16] = Luminescence Cell-Based Dose Response HTS to Identify Activators of Luciferase Translation or Activity in H4 […] Cells. [Related pubchem assays: 1829 (Project Summary), 1814 (Primary HTS)]; type: functional
H4 = test: Luminescence Cell-Based Dose Response HTS to Identify Activators of 5'UTR Stem-Loop Driven Prion Protein mRNA Translation in H4 Neuroglioblastoma Cells. [Related pubchem assays: 1829 (Project Summary), 1814 (Primary HTS)]; type: functional; conditions: Homo sapiens
Vero [17] = test: cells; type: functional, cell-based; conditions: Chlorocebus sabaeus
Vero [18] = test: cells; type: functional; conditions: Chlorocebus sabaeus
INS1 = test: beta cell apoptosis inhibitors, cytokine rescue, dose response, luminescence, retest (AID 449756); type: functional, cell-based; conditions: Rattus norvegicus;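 note: cell death triggered by IL-1 beta plus TNF-alpha plus IFN-gamma mixture; protective hits raise ATP signal compared with cytokine alone wells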
cells [19] = type: functional, cell-based
cells [20] = type: functional, cell-based; remark: listed apart in the source
[21] = Luminescence Cell-Based Dose Retest to Confirm Inhibitors of Cancer Stem Cells. [Related pubchem assays (depositor defined):AID2717, AID2721]; type: functional; conditions: Homo sapiens
fMet-Leu-Phe receptor = target: T3, fMet-Leu-Phe receptor (Homo sapiens, UniProt P21462); test: FPR ligands, dose response (AID 519); type: functional
T3 sequence (P21462 whole entry): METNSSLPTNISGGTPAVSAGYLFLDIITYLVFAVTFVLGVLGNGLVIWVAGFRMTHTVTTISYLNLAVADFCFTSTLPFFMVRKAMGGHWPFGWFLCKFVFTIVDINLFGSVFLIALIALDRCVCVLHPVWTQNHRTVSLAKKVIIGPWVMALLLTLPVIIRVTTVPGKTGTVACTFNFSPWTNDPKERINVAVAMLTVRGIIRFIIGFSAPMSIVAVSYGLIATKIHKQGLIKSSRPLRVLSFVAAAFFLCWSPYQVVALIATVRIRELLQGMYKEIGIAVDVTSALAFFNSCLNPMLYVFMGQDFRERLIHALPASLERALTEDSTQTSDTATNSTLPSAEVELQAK

[22] = target: T4, Rac GTPase-activating protein 1 (Homo sapiens, UniProt Q9H0H5); test: MgcRacGAP GTPase-activating activity inhibitors, confirmation, biochemical, ADP Hunter fluorescence, primary and confirmatory (AID 624330); type: functional
T4 sequence (Q9H0H5 whole entry): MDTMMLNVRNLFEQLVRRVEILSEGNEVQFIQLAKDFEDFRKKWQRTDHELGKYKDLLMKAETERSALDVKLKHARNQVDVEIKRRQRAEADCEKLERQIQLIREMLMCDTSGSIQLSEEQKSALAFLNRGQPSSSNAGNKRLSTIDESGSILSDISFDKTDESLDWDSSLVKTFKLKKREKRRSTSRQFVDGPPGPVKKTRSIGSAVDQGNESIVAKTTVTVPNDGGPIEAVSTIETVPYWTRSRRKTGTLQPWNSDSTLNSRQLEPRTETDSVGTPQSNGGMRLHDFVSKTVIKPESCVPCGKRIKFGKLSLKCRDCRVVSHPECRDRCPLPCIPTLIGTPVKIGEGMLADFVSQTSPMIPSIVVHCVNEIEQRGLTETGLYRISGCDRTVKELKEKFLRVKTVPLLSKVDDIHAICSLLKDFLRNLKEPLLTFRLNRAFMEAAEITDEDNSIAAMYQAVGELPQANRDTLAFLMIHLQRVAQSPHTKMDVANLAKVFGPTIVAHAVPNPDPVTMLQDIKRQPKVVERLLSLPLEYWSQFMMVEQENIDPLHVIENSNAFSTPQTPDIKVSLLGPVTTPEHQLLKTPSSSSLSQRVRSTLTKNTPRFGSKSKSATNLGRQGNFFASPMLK

For COc1ccc(-c2nnc(SCC(=O)Nc3cc(C)on3)[nH]2)cc1, the IC50 (SUMO-activating enzyme) was > 100 µM (inactive).

In the case of Cc1cc(C(C)(C)C)oc1C(=O)N(CC(=O)NC1CCCC1)Cc1ccccc1Cl, the EC50 (Mucolipin-3) is reported as > 29.9 µM (not active), the IC50 [1] is reported as 2.28 µM (not active) and the EC50 (Ion channel NompC) is reported as > 29.9 µM (not active).

With C[N+](C)(C)CCCNC(=O)c1ccc(C=NO)nc1 the IC50 [2] was 2.7 µM (active) and the IC50 [3] was 4.16 µM (active).

For O=C(N=Nc1c(O)[nH]c2ccc([N+](=O)[O-])cc12)c1ccccc1[N+](=O)[O-], the IC50 (cells [4]) was 26.2 µM (active).

With CCc1ccccc1/N=C1/S/C(=C/c2ccccc2OCC(=O)N2CCOCC2)C(=O)N1C the IC50 [5] was 2.71 µM (active).

For CCCc1n(CC(O)COC2CCCCC2)c2ccccc2[n+]1CC (stereo not given), the IC50 [2] was 3.26 µM (active) and the IC50 [3] was 3.93 µM (active).

In the case of Cc1csc(NC(=O)CSc2nc3ccccc3s2)n1, the EC50 [6] is reported as 7.68 µM (active).

With COc1ccc(/C=C/C(=O)O)cc1 [4-METHOXYCINNAMIC ACID] the AC50 [7] was 21 µM (active).

With CC(=O)c1ccc(C(=O)Nc2nnc(-c3ccc(Cl)cc3)o2)cc1 the CC50 [8] was 7.9 µM (active), the CC50 [9] was 13.1 µM (active) and the CC50 [10] was 8.62 µM (active). For the same compound, the IC50 (cells [11]) was 0.47 µM (active) and the IC50 (H9c2) was > 79 µM (inactive).

For CC[n+]1c(/C=C/C=C/N(C(C)=O)c2ccccc2)sc2ccccc21, the EC50 [12] was 20.8 µM (active), the EC50 [13] was 19.7 µM (active) and the EC50 [6] was 2.21 µM (active).

In the case of CCN(c1ccccc1)S(=O)(=O)c1ccc(Cl)c(NC(=O)CSc2n[nH]c(N)n2)c1, the CC50 [14] is reported as 44.2 µM (active) and the IC50 (cells [4]) is reported as 7.78 µM (active).

With Cn1c(C(=O)NCc2cccs2)cc2oc3ccccc3c21 the CC50 [14] was 3.9 µM (active), the EC50 [15] was > 120 µM (not active) and the EC50 [16] was 2.92 µM (active). The EC50 (H4) was > 120 µM (not active), the IC50 (Vero [17]) was 1.32 µM (active) and the CC50 (Vero [18]) was > 25 µM (active). For the same compound, the IC50 (cells [4]) was 18.4 µM (active).

In the case of Cc1ccccc1-c1cc(C(=O)Nc2sc(C)c(C)c2C(N)=O)c2ccccc2n1, the IC50 [5] is reported as 2.76 µM (active) and the AC50 (INS1) is reported as 5.87 µM (active).

In the case of CCN(CCCNC(=O)CCc1nc(-c2ccc(OC)cc2)no1)c1cccc(C)c1, the EC50 (cells [19]) is reported as > 350 µM (not active), the EC50 (cells [20]) is reported as > 350 µM (not active) and the EC50 [6] is reported as 4.41 µM (active).

With Cc1nn(-c2nc3ccccc3s2)c(C)c1Oc1ccccc1O the CC50 [14] was 20.6 µM (active), the AC50 [21] was 5.5 µM (active) and the IC50 (Vero [17]) was 11.7 µM (active). For the same compound, the CC50 (Vero [18]) was > 25 µM (active), the Ki (fMet-Leu-Phe receptor) was > 66.7 µM (inactive) and the IC50 (cells [4]) was 15.6 µM (active).

With COc1ccc([N+](=O)[O-])cc1CSc1ccccn1 the IC50 [2] was 8.44 µM (active) and the IC50 [3] was 7.41 µM (active).

In the case of COc1cc(/C=C2\Oc3cc(O)ccc3C2=O)ccc1O, the AC50 [7] is reported as 0.641 µM (active) and the IC50 [22] is reported as 26 µM (active).

With CC12CCC(C(=O)Nc3nc4ccc(Br)cc4s3)(OC1=O)C2(C)C (stereo not given) the AC50 [7] was 1.36 µM (active).
